The values that follow come from patent US8530493B2, “Indolopyridines as Eg5 kinesin modulators” (4SC AG, priority 2006, dated 2013).

The test concerns RKO p21 uninduced (proliferating) colon adenocarcinoma cells. The experiment in a line: Alamar Blue cell viability assay, RKO p21 uninduced (proliferating). The class given is cell-based. The following applies: Homo sapiens, Table B3, anti-proliferative/cytotoxic activity, 72 hours, read-out: −log EC50 RKO p21 uninduced (proliferating) (converted). Summed up: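 RKO p21 or p27 subclones grown without Ponasterone A, i.e. proliferating, exposed 24 h after seeding to semi-log compound dilutions in DMEM/10% FCS (1% DMSO controls) for 72 h at 37° C. Alamar Blue fluorescence (544/590 nm) read relative to untreated cells; EC50 from dose-response curves, given as −log EC50 (mol/l).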
Consider `C=CCN(C)CCN1C(=O)N2[C@H](c3cccc(O)c3)c3[nH]c4ccc(OC(F)F)cc4c3C[C@@]2(C)C1=O` (racemic) [Example 290, (3aSR,10RS)-2-[2-(Allyl-methyl-amino)-ethyl]-6-(1,1-difluoro-methoxy)-10-(3-hydroxy-phenyl)-3a-methyl-3a,4,9,10-tetrahydro-2,9,10a-triaza-cyclopenta[b]fluorene-1,3-dione], for which the EC50 (in general, the concentration giving half of the maximal effect) was 39.8 to 251 nM.

Take `CN1CCN(CCCN2C(=O)N3[C@H](c4cccc(O)c4)c4[nH]c5ccc(Br)cc5c4C[C@@]3(C)C2=O)CC1` (racemic) [Example 375, (3aSR,10RS)-6-Bromo-10-(3-hydroxy-phenyl)-3a-methyl-2-[3-(4-methyl-piperazin-1-yl)-propyl]-3a,4,9,10-tetrahydro-2,9,10a-triaza-cyclopenta[b]fluorene-1,3-dione]: the concentration for a half-maximal effect (EC50) is at most 39.8 nM.

With `COc1cc2c3c([nH]c2cc1F)[C@@H](c1cccc(O)c1)N1C(=O)N(CCN2CCN(C)CC2)C(=O)[C@]1(C)C3` (racemic) [Example 266, (3aSR,10RS)-7-Fluoro-10-(3-hydroxy-phenyl)-6-methoxy-3a-methyl-2-[2-(4-methyl-piperazin-1-yl)-ethyl]-3a,4,9,10-tetrahydro-2,9,10a-triaza-cyclopenta[b]fluorene-1,3-dione], the concentration for a half-maximal effect (EC50) was 39.8 to 251 nM.

On to `CCOc1ccc2[nH]c3c(c2c1)C[C@@]1(C)C(=O)N(CCCN2CCC(C)CC2)C(=O)N1[C@@H]3c1cccc(O)c1` (racemic) [Example 224, (3aSR,10RS)-6-Ethoxy-10-(3-hydroxy-phenyl)-3a-methyl-2-[3-(4-methyl-piperidin-1-yl)-propyl]-3a,4,9,10-tetrahydro-2,9,10a-triaza-cyclopenta[b]fluorene-1,3-dione], for which the EC50 was 39.8 to 251 nM.

As to `CCN(C)CCCN1C(=O)N2[C@H](c3cccc(O)c3)c3[nH]c4cc(F)c(Cl)cc4c3C[C@@]2(C)C1=O` (racemic) [Example 467, (3aSR,10RS)-6-Chloro-2-[3-(ethyl-methyl-amino)-propyl]-7-fluoro-10-(3-hydroxy-phenyl)-3a-methyl-3a,4,9,10-tetrahydro-2,9,10a-triaza-cyclopenta[b]fluorene-1,3-dione], the EC50 was at most 39.8 nM.

Consider `CC(C)CNCCCN1C(=O)N2[C@H](c3cccc(O)c3)c3[nH]c4cc(F)c(Cl)cc4c3C[C@@]2(C)C1=O` (racemic) [Example 459, (3aSR,10RS)-6-Chloro-7-fluoro-10-(3-hydroxy-phenyl)-2-(3-isobutylamino-propyl)-3a-methyl-3a,4,9,10-tetrahydro-2,9,10a-triaza-cyclopenta[b]fluorene-1,3-dione], for which the EC50 is 39.8 to 251 nM.

Take `C[C@@]12Cc3c([nH]c4ccc(Br)cc34)[C@@H](c3cccc(O)c3)N1C(=O)N(CCN1CCCCCC1)C2=O` (racemic) [Example 396, (3aSR,10RS)-2-(2-Azepan-1-yl-ethyl)-6-bromo-10-(3-hydroxy-phenyl)-3a-methyl-3a,4,9,10-tetrahydro-2,9,10a-triaza-cyclopenta[b]fluorene-1,3-dione]: the concentration for a half-maximal effect (EC50) is 39.8 to 251 nM.

Take `C[C@@]12Cc3c([nH]c4ccc(Cl)cc34)[C@@H](c3cccc(O)c3)N1C(=O)N(CCCN1CC=CCC1)C2=O` (racemic) [Example 174, (3aSR,10RS)-6-Chloro-2-[3-(3,6-dihydro-2H-pyridin-1-yl)-propyl]-10-(3-hydroxy-phenyl)-3a-methyl-3a,4,9,10-tetrahydro-2,9,10a-triaza-cyclopenta[b]fluorene-1,3-dione]: the concentration for a half-maximal effect (EC50) was at most 39.8 nM.

Consider `CC(=O)N1CCN(CCN2C(=O)N3[C@H](c4cccc(O)c4)c4[nH]c5ccc(Br)cc5c4C[C@@]3(C)C2=O)CC1` (racemic) [Example 387, (3aSR,10RS)-2-[2-(4-Acetyl-piperazin-1-yl)-ethyl]-6-bromo-10-(3-hydroxy-phenyl)-3a-methyl-3a,4,9,10-tetrahydro-2,9,10a-triaza-cyclopenta[b]fluorene-1,3-dione], for which the concentration for a half-maximal effect (EC50) was at most 39.8 nM.
